# Results reported in article PMC10331583, “Control of fibrosis with enhanced safety via asymmetric inhibition of prolyl‐tRNA synthetase 1” (EMBO Molecular Medicine, 2023).
# Where “and” joins values, the source holds several entries; their conditions need not be identical. Identical values can stand only once. Like-named read-outs stand apart in the source and are kept apart here.
# Experiments:
# [1] = system: TNT Quick Coupled Transcription/Translation System (luciferase synthesis); type: biochemical
# WI‐26 VA4 cells = test: Puromycin incorporation assay; type: cell-based, human; conditions: for activity at 0.1 µM: WI26VA4, 100 nM; for activity at 0.3 µM: WI26VA4, 300 nM; for activity at 1 µM: WI26VA4, 1000 nM; for activity at 3 µM: WI26VA4, 3000 nM; for activity at 5 µM: WI26VA4, 5000 nM; for activity at 10 µM: WI26VA4, 10000 nM
# Method: After being rinsed with cold PBS twice, the cells were collected and resuspended in 200 μl of the carbonate bicarbonate buffer (Sigma Aldrich, C3041‐50CAP) with protease inhibitor. The cell lysates were obtained by sonication and centrifugation at 20,000 g for 15 min at 4°C. After protein quantification using a Pierce™ BCA Protein Assay Kit (Thermo Fisher Scientific, 23225), 400 ng of the proteins was coated to ELISA plates for 18 h at 4°C. […] The plates were rinsed with the washing buffer for three times after each antibody incubation step. […] The amount of puromycin incorporated in proteins was determined by measuring the absorbance at 450 nm (reference wavelength at 620 nm). Experimental values marked in red with strikethrough text in the Figure Source Data file were excluded from the analysis. These values were determined by considering the values of biological and technical replicates under the same condition, as well as the values at the former and later chemical concentrations.
# [2] = Homo sapiens, read-out: Puromycin, % of control, average
# [3] = Homo sapiens, read-out: Puromycin, % of control, single replicate
structure (smiles),measurement,setting,value
Cc1c(Cl)ccc2c1ncn2CC(=O)C[C@H]1NCCC[C@@H]1O [DWN11748],TNT-luciferase % of control,"[1]; 20 nM, Experiment #1, replicates, 0.02 µM",124.31 % of control and 118.51 % of control and 107.73 % of control
same,TNT-luciferase % of control,"[1]; 20 nM, Experiment #2, replicates, 0.02 µM",122.22 % of control and 112.59 % of control and 102.96 % of control
same,"TNT-luciferase % of control, average",[1]; 20 nM,114.72 % of control
same,TNT-luciferase % of control,"[1]; 60 nM, Experiment #1, replicates, 0.06 µM",118.51 % of control and 116.02 % of control and 106.08 % of control
same,TNT-luciferase % of control,"[1]; 60 nM, Experiment #2, replicates, 0.06 µM",117.78 % of control and 113.33 % of control and 103.70 % of control
same,"TNT-luciferase % of control, average",[1]; 60 nM,112.57 % of control
same,TNT-luciferase % of control,"[1]; 200 nM, Experiment #1, replicates, 0.2 µM",119.34 % of control and 112.71 % of control and 116.02 % of control
same,TNT-luciferase % of control,"[1]; 200 nM, Experiment #2, replicates, 0.2 µM",136.30 % of control and 122.22 % of control and 131.11 % of control
same,"TNT-luciferase % of control, average",[1]; 200 nM,122.95 % of control
same,TNT-luciferase % of control,"[1]; 600 nM, Experiment #1, replicates, 0.6 µM",122.65 % of control and 113.54 % of control and 107.73 % of control
same,TNT-luciferase % of control,"[1]; 600 nM, Experiment #2, replicates, 0.6 µM",109.63 % of control and 101.48 % of control and 108.89 % of control
same,"TNT-luciferase % of control, average",[1]; 600 nM,110.65 % of control
same,TNT-luciferase % of control,"[1]; 2000 nM, Experiment #1, replicates, 2 µM",77.24 % of control and 79.06 % of control and 67.79 % of control
same,TNT-luciferase % of control,"[1]; 2000 nM, Experiment #2, replicates, 2 µM",73.56 % of control and 76.30 % of control and 68.37 % of control
same,"TNT-luciferase % of control, average",[1]; 2000 nM,73.72 % of control
same,TNT-luciferase % of control,"[1]; 6000 nM, Experiment #1, replicates, 6 µM",17.73 % of control and 16.82 % of control and 16.99 % of control
same,TNT-luciferase % of control,"[1]; 6000 nM, Experiment #2, replicates, 6 µM",12.15 % of control and 12.07 % of control and 13.19 % of control
same,"TNT-luciferase % of control, average",[1]; 6000 nM,14.83 % of control
same,TNT-luciferase % of control,"[1]; 20000 nM, Experiment #1, replicates, 20 µM",0.54 % of control and 0.58 % of control and 0.61 % of control
same,TNT-luciferase % of control,"[1]; 20000 nM, Experiment #2, replicates, 20 µM",0.11 % of control and 0.0948 % of control and 0.12 % of control
same,"TNT-luciferase % of control, average",[1]; 20000 nM,0.35 % of control
same,TNT-luciferase % of control,"[1]; 60000 nM, Experiment #1, replicates, 60 µM",0.02 % of control (2×) and 0.0164 % of control
same,TNT-luciferase % of control,"[1]; 60000 nM, Experiment #2, replicates, 60 µM",0.000642 % of control and -0.00528 % of control and -0.00499 % of control
same,"TNT-luciferase % of control, average",[1]; 60000 nM,0.00775 % of control
same,TNT-luciferase % of control,"[1]; 200000 nM, Experiment #1, replicates, 200 µM",0.00754 % of control and 0.000331 % of control and -0.000994 % of control
same,TNT-luciferase % of control,"[1]; 200000 nM, Experiment #2, replicates, 200 µM",0.0019 % of control and 0.00487 % of control and -0.000321 % of control
same,"TNT-luciferase % of control, average",[1]; 200000 nM,0.00222 % of control
same,TNT-luciferase LogIC50 (best-fit value),"[1]; log(inhibitor) vs. response, variable slope (four parameters), concentration in nM",3.407
same,IC50,"[1]; log(inhibitor) vs. response, variable slope (four parameters), unit from head concentration (nM), read-out: TNT-luciferase IC50 (best-fit value)",2550 nM
same,"Puromycin, % of control, single replicate","WI‐26 VA4 cells; 300 nM, 0.3 µM",100.32 % of control and 98.22 % of control and 104.21 % of control and 104.56 % of control and 103.89 % of control and 104.45 % of control and 100.10 % of control and 97.92 % of control
same,"Puromycin, % of control, single replicate","WI‐26 VA4 cells; 1000 nM, 1 µM",97.71 % of control and 98.10 % of control and 102.31 % of control and 107.16 % of control and 101.57 % of control and 105.82 % of control and 108.83 % of control
same,"Puromycin, % of control, single replicate","WI‐26 VA4 cells; 3000 nM, 3 µM",32.63 % of control
same,"Puromycin, % of control, single replicate","WI‐26 VA4 cells; 5000 nM, 5 µM",22.79 % of control and 22.67 % of control and 25.49 % of control and 25.64 % of control and 24.99 % of control and 25.25 % of control and 25.95 % of control and 25.31 % of control
same,"Puromycin, % of control, single replicate","WI‐26 VA4 cells; 10000 nM, 10 µM",12.21 % of control and 11.47 % of control and 15.58 % of control and 13.74 % of control and 13.61 % of control and 15.33 % of control and 15.25 % of control and 13.38 % of control
same,"Puromycin, % of control, single replicate","WI‐26 VA4 cells; 100000 nM, 100 µM",0.86 % of control and 1.09 % of control and 0.96 % of control and 0.69 % of control and 0.0546 % of control and 1.21 % of control and 1.52 % of control and 1.41 % of control and 1.00 % of control
same,activity at 0.1 µM,WI‐26 VA4 cells; [2],106%
same,activity at 0.1 µM,WI‐26 VA4 cells; [3],113%
same,activity at 0.3 µM,WI‐26 VA4 cells; [2],102%
same,activity at 0.3 µM,WI‐26 VA4 cells; [3],102%
same,activity at 1 µM,WI‐26 VA4 cells; [2],103%
same,activity at 1 µM,WI‐26 VA4 cells; [3],101%
same,activity at 3 µM,WI‐26 VA4 cells; [2],31.2%
same,activity at 3 µM,WI‐26 VA4 cells; [3],29.7%
same,activity at 5 µM,WI‐26 VA4 cells; [2],24.6%
same,activity at 5 µM,WI‐26 VA4 cells; [3],23.1%
same,activity at 10 µM,WI‐26 VA4 cells; [2],13.7%
same,activity at 10 µM,WI‐26 VA4 cells; [3],12.4%
same,activity at 30 µM,"WI‐26 VA4 cells; Homo sapiens, WI26VA4, 30000 nM, read-out: Puromycin, % of control, average",1.05%
same,activity at 100 µM,"WI‐26 VA4 cells; Homo sapiens, WI26VA4, 100000 nM, read-out: Puromycin, % of control, average",0.98%
same,IC50,"WI‐26 VA4 cells; Homo sapiens, WI26VA4, log(inhibitor) vs. response, variable slope (four parameters), read-out: Puromycin, IC50 (best-fit value)",2.68 µM
same,"Puromycin, HillSlope (best-fit value)","WI‐26 VA4 cells; log(inhibitor) vs. response, variable slope (four parameters)",-2.365
